According to ChEMBL document CHEMBL1667768, “Compounds containing 2-substituted imidazole ring for treatment against human African trypanosomiasis” (Bioorg Med Chem Lett, 2011):
Values after ≈ are worked out from the molar mass of the structure shown.

Experiments:
[1] = Aqueous solubility of the compound at pH 1.5 at 25 degC; format: physicochemical
[2] = system: Trypanosoma brucei rhodesiense; experiment: Antimicrobial activity against Trypanosoma brucei rhodesiense after 48 hrs by proliferation assay; format: functional, organism-based
[3] = Aqueous solubility of the compound at pH 7.5 at 25 degC; format: physicochemical
[4] = system: L6; experiment: Cytotoxicity against rat L6 cells after 72 hrs by SRB assay; format: cell-based; conditions: L6, 72 h

SMILES	solubility [1]	IC50 [2]	solubility [3]	IC50 [4]
CSc1ccc(OCc2nc(Br)c(Cl)n2C)cc1	37.5 µM (≈ 13 µg/mL)	> 30 µM	21.7 µM (≈ 7.54 µg/mL)	> 400 µM
CSc1ccc(OCc2nc(Cl)c(Br)n2C)cc1	35.8 µM (≈ 12.4 µg/mL)	> 30 µM	24.9 µM (≈ 8.66 µg/mL)	> 400 µM
Cn1c([N+](=O)[O-])cnc1COc1ccncc1	4.8 µM (≈ 1.12 µg/mL)	> 30 µM	2.7 µM (≈ 0.632 µg/mL)	> 400 µM
CSc1ccc(OCc2ncc(S(=O)(=O)O)n2C)cc1	25.4 µM (≈ 7.99 µg/mL)	> 30 µM	8.2 µM (≈ 2.58 µg/mL)	> 400 µM
CSc1ccc(OCc2ncc(Br)n2C)cc1	18.5 µM (≈ 5.79 µg/mL)	> 30 µM	8.5 µM (≈ 2.66 µg/mL)	> 400 µM
CSc1ccc(OCc2nc(Cl)c(Cl)n2C)cc1	45.5 µM (≈ 13.8 µg/mL)	> 30 µM	25.5 µM (≈ 7.73 µg/mL)	> 400 µM
CSc1ccc(OCc2nc(Br)c([N+](=O)[O-])n2C)cc1	16.7 µM (≈ 5.98 µg/mL)	0.55 µM	5.8 µM (≈ 2.08 µg/mL)	0.8 µM
Cc1cc(OCc2ncc([N+](=O)[O-])n2C)ccn1	4.3 µM (≈ 1.07 µg/mL)	27 µM	2.2 µM (≈ 0.546 µg/mL)	286 µM
CSc1ccc(OCc2nc(Cl)c([N+](=O)[O-])n2C)cc1	17.1 µM (≈ 5.37 µg/mL)	0.25 µM	5.9 µM (≈ 1.85 µg/mL)	0.2 µM
CSc1ccc(OCc2ncc(Cl)n2C)cc1	21 µM (≈ 5.64 µg/mL)	> 30 µM	8.7 µM (≈ 2.34 µg/mL)	> 400 µM
CSc1ccc(OCc2nc(Br)c(Br)n2C)cc1	41.2 µM (≈ 16.2 µg/mL)	> 30 µM	24.5 µM (≈ 9.61 µg/mL)	> 400 µM
CSc1ccc(OCc2nc([N+](=O)[O-])cn2C)cc1	5.1 µM (≈ 1.42 µg/mL)	> 30 µM	2.5 µM (≈ 0.698 µg/mL)	> 400 µM
CSc1ccc(OCc2nc(S(=O)(=O)O)c([N+](=O)[O-])n2C)cc1	22.8 µM (≈ 8.19 µg/mL)	0.37 µM	7.9 µM (≈ 2.84 µg/mL)	0.2 µM
CSc1ccc(OCc2ncc([N+](=O)[O-])n2C)cc1 [FEXINIDAZOLE]	5.5 µM (≈ 1.54 µg/mL)	0.7 µM	2.5 µM (≈ 0.698 µg/mL)	377 µM
CCc1cc(OCc2ncc([N+](=O)[O-])n2C)ccn1	5.9 µM (≈ 1.55 µg/mL)	25 µM	3.1 µM (≈ 0.813 µg/mL)	243 µM
Cn1c([N+](=O)[O-])cnc1COc1ccccc1	5.7 µM (≈ 1.33 µg/mL)	> 30 µM	2.1 µM (≈ 0.49 µg/mL)	> 400 µM
Cn1c([N+](=O)[O-])cnc1COc1ccnc(N2CCNCC2)c1	5.6 µM (≈ 1.78 µg/mL)	0.67 µM	3.5 µM (≈ 1.11 µg/mL)	255 µM
